Results on three compounds are retold here after patent US20080090814A1, “PYRIDAZINONE COMPOUNDS” (Anadys Pharmaceuticals, Inc., priority 2006, published 2008).

Each structure is given as a SMILES string.

HCV NS5B polymerase, sequence (P27958 2421-3011): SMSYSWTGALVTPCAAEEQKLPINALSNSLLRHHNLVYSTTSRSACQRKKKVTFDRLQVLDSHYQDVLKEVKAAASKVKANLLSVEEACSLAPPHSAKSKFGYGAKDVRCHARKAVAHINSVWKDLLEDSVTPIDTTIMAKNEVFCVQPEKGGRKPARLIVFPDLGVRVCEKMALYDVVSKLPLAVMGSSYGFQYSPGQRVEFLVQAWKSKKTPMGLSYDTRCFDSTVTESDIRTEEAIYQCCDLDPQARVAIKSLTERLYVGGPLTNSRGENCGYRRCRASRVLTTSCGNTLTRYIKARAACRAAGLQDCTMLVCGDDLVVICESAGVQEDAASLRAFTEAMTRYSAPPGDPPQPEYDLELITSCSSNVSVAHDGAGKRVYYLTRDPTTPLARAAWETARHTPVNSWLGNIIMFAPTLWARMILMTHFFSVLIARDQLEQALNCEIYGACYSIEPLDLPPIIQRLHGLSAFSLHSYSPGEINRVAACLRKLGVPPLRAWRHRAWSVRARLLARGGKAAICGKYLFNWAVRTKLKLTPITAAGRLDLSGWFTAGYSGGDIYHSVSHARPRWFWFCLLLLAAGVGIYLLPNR

The target of the assay is HCV NS5B polymerase (Hepatitis C virus genotype 1a, UniProt P27958). In words: HCV polymerase inhibition assay (FlashPlate, [α-33P]GTP incorporation). The class given is biochemical. The conditions noted are these: 20 nM enzyme, 0.6 μM GTP, 250 nM 5′biotinylated oligo (rG13)/poly rC, 75 min at 28° C. As for the experimental part:
Compounds were tested for HCV polymerase inhibition. Assays were performed in a 96-well streptavidin-coated FlashPlate using 20 nM enzyme, 0.5 μCi of [α-^33P]GTP, 0.6 μM GTP, and 250 nM 5′biotinylated oligo (rG13)/poly rC in 20 mM Tris-HCl, pH 7.5, 5 mM MgCl2, 5 mM dithiothreitol, 0.1 g/L bovine serum albumin, and 100 U/mL RNAse inhibitor. The reaction was stopped by aspiration after 75 min at 28° C. and the plate was washed several times. After washing and drying the plate, incorporated radioactivity was counted using a Microbeta scintillation counter. IC50 values were calculated relative to the uninhibited control and inhibition data were fitted to a 4-parameter IC50 equation. For very potent inhibitors, the data were fitted to a tight binding quadratic equation to obtain IC50 values.
Turning to `CC(C)CCn1nc(-c2cccs2)c(O)c(C2=CS(=O)(=O)c3ccccc3N2)c1=O` [Compound 16, 4-(1,1-Dioxo-1,4-dihydro-1λ^6-benzo[1,4]thiazin-3-yl)-5-hydroxy-2-(3-methyl-butyl)-6-thiophen-2-yl-2H-pyridazin-3-one], the half-maximal inhibitory concentration (IC50) – broadly, the concentration at which inhibition is half-maximal – was over 1 µM.

For the compound `CCCCc1nn(CCC(C)C)c(=O)c(C2=CS(=O)(=O)c3ccccc3N2)c1O` [Compound 25, 6-Butyl-4-(1,1-dioxo-1,4-dihydro-1λ^6-benzo[1,4]thiazin-3-yl)-5-hydroxy-2-(3-methyl-butyl)-2H-pyridazin-3-one], the 50% inhibitory concentration (IC50) is over 1 µM.

`CC(C)CCn1nc(-c2cccs2)c(O)c(C2=CS(=O)(=O)c3cc(NS(C)(=O)=O)ccc3N2)c1=O` [Compound 29, N-{3-[5-Hydroxy-2-(3-methyl-butyl)-3-oxo-6-thiophen-2-yl-2,3-dihydro-pyridazin-4-yl]-1,1-dioxo-1,4-dihydro-1λ^6-benzo[1,4]thiazin-7-yl}-methanesulfonamide] had an IC50 of under 1 µM.
